Reference: patent US9526707B2, “Methods for treating or preventing neuroinflammation or autoimmune diseases” (priority 2007, dated 2016)
Entries after “also recorded” stand apart in the source; their conditions may differ. Structures can show the parent of a compound that is named as a salt.

Columns and labels:
[1] = test system: activated microglia isolated from rat brain; experiment: Nitrite production by LPS-activated microglia; type: cell-based
Text: To further evaluate the beneficial effect of Didox on brain tissue, we analyzed the ability of Didox to attenuate the production of nitrite by activated microglia, which are major contributors to the inflammatory status of EAE mice. Microglia were isolated from rat brain and activated with lipopolysaccharide (LPS) in the presence or absence of increasing concentrations of Didox. […] This observation, together with the attenuation of the T-cell inflammatory response would both contribute to the biological activity of Didox to reduce the severity of EAE.

[2] = test system: T-cells in splenocytes from C57BL/6 mice; experiment: T-cell proliferation of CD3/CD28 stimulated splenocytes (BrdU); type: cell-based, mouse; conditions: 48 hours with compound, b156: at 100 μM
Procedure: A series of in vitro experiments were conducted to ascertain the effect of Didox on immune function. A mixed splenocyte preparation was divided into two portions, one was stimulated with CD3 and CD28 to specifically activate T-cells while the other served as a control. The splenocytes were isolated from female C57BL/6 mice (6-8 weeks old) and the splenocytes were incubated for 24 hours with CD3/CD28 coated wells, after which Didox was added at varying concentrations. The cells were then incubated for an additional 48 hours. Each well was labeled with BrdU for the last 24 hours and the wells analyzed according to the manufacturer's instructions (Roche-Cell Proliferation Chemiluminescent assay kit). FIG. 7 depicts the results of these experiments. The solid black bars represent un-stimulated splenocytes while the white bars the effect of varying concentrations of Didox on the amount of T-Cells present.

mouse cytokines in serum = experiment: Serum cytokine levels in EAE mice, BioPlex multiplexable bead assay; type: in vivo
Procedure: The effect of Didox on cytokine levels was tested. As before, two groups were assembled, one treated with Didox while the other group served as a control and only received saline injections. […] EAE was initiated in all animals depicted at the same time and in an identical manner. All animals were of the same experimental time point at the time of serum collection for cytokine analysis. The Didox treated group experienced a decrease of two points in the EAE clinical score. The analysis of cytokine levels was performed by utilizing a BioPlex® multiplexable bead assay method that simultaneously quantitates mouse cytokines in diverse matrices. In this example the assay was carried out on serum derived from mice of the two groups (Didox and saline treated) at day 12 post MOG induced EAE. Blood was obtained by cardiac aspiration from mice that had been euthanized by CO2. Serum was obtained from clotted blood after centrifugation and stored at […] until assayed. For analysis the serum was diluted and analyzed with the Bio-Plex® assay system. The system utilized beads that are internally labeled with two fluorescent dyes (one for identification of the bead and one for covalent attachment of ligands (or biomolecules). Once an antibody was conjugated to the bead a sample of serum was added and followed by a reporter antibody that is often biotinylated. Following incubation with biotinylated reporter antibody, strepavidin/phycoerythrin was added to make detection possible. The system can profile up to 23 mouse cytokines. Table B indicates the amount of cytokine present (pg/mL) in the serum.

[3] = test system: Experimental Autoimmune Encephalomyelitis (EAE) in C57BL/6 mice; experiment: Experimental Autoimmune Encephalomyelitis (EAE) model, treatment started two days prior to MOG booster; type: in vivo, mouse; conditions: for effect on EAE clinical symptoms (in words): treated versus control animals, FIG. 1, 3, 4, 5
Text: (§1) One method of showing the efficacy of the disclosed compounds for the treatment of various conditions associated with multiple sclerosis (MS) is its ability to inhibit effects of Experimental Autoimmune Encephalomyelitis (EAE) in laboratory animals. EAE is an animal model for MS, which entails inducing a T-cell-mediated autoimmune disease against myelin basic protein in certain susceptible mammalian species. The EAE model is an appropriate method for studying the inflammation of the brain and spinal cord associated with MS (see Bolton, C. Mult. Scler. 1995; 1(3); 143-9). […] The symptoms that are observed in animals vary from mild gait disturbances and tail atony to complete paralysis and death. These clinical manifestations are given a clinical score ranging from 0 to 5. In the present situation, the scores were based on the following criteria: clinical score 0, no signs; 1.0 limp tail; 2.0 limptail with loss of righting; 3.0 paralysis of single hind limb; 4.0 paralysis of both hind limbs; 5.0 death. Weight loss typically occurs. In animals that survive, spontaneous recovery occurs, accompanied by variable recovery of most motor function. Depending on the species, allergen, and methodology used, animals tested by the EAE model may experience a single (acute EAE) or several (chronic relapsing EAE) attacks.
Experimental autoimmune encephalomyelitis was induced in C57BL/6 mice using the following protocol. Female C57BL/6 mice (6-8 weeks old, N=24) purchased from Jackson Labs, were allowed to acclimate for one week prior to EAE induction. EAE was induced using myelin oligodendrocyte glycoprotein peptide 35-55 (MOG35-55, MEVGWYRSPFSRVVHL-YRNGK). The MOG35-55 injection with Freund's adjuvant was administered subcutaneously adjacent to the hind leg. At the same time, the animals received an injection of pertussis toxin (200 ng in 200 μL phosphate buffered saline (PBS), intraperitoneally), and a second pertussis toxin injection two days later. Mice were given a booster injection of MOG35-55 at day No. 7. Two or three days after the second MOG booster injection, some animals begin to show signs of EAE. The mice are monitored daily using the clinical scoring system described above.
In addition, Didox delayed the onset of the disease in the minority of animals in which it occurred in the Didox treatment group, 7.3 days versus 4.4 days for the control group. […] For example, at the plateau of the clinical condition on day 12 for both the Didox and saline (control) group, represented by the open squares ? the mean clinical score was only 0.45 for the Didox treated cohort compared to a score of 1.9 for the control group. […]

activated T-cells = experiment: Secretion of inflammatory cytokines by activated T-Cells in vitro; type: cell-based
Text: The purpose of this example was to determine whether Didox treatment of T-Cells in vitro produced similar data as was found in vivo using the EAE model.

[4] = test system: Experimental Autoimmune Encephalomyelitis (EAE) in C57BL/6 mice; experiment: EAE model, treatment started at day 16 after MOG booster (established symptoms); type: in vivo, mouse; conditions: 250 mg/kg intraperitoneally, started 16 days after MOG35-55 booster
Text: as §1, with “attacks. […]” for “attacks.”

EAE mice = experiment: EAE model, treatment started when mice had reached clinical stage 2 or more (clinical score); type: in vivo, mouse; conditions: treatment begun at clinical stage 2 or more
[5] = serum, treated versus saline treated EAE mice
[6] = clinical score 0 to 5, treated from day -2 before MOG booster
[7] = 48 hours treatment of activated T-cells, even at 5 μM

With `NC(=NO)c1ccc(O)c(O)c1` (as salt: hydrochloride) [Example I, 3,4-dihydroxybenzamidoxime] as the molecule, how does the melting point read?
The melting point was 193 °C (dec.).

What does the source list for `O=C(NO)c1ccc(O)c(O)c1` [Didox, N,3,4-trihydroxybenzamide]?
nitrite production ([1]; 100 μM treatment): reached base line levels; nitrite production, dose dependence ([1]; increasing concentrations): dose dependent attenuation of nitrite production; level of T-Cell proliferation [2]: reduces the level of T-cells to the amount present in un-stimulated cells; also recorded: reduced to that for un-stimulated cells; IL-4 in serum (mouse cytokines in serum; day 12 post MOG induced EAE, control 0 ± 0): 0 ± 0 pg/mL; IL-2 in serum (mouse cytokines in serum; day 12 post MOG induced EAE, control 2 ± 2): 0.7 ± 0.2 pg/mL; IL-5 in serum (mouse cytokines in serum; day 12 post MOG induced EAE, control 6 ± 5): 2 ± 1 pg/mL; GM-CSF in serum (mouse cytokines in serum; day 12 post MOG induced EAE, control 7 ± 4): 0.4 ± 0.5 pg/mL; IFN-g in serum (mouse cytokines in serum; day 12 post MOG induced EAE, control 10 ± 3): 3 ± 1 pg/mL; IL-10 in serum (mouse cytokines in serum; day 12 post MOG induced EAE, control 16 ± 7): 3 ± 1 pg/mL; IL-17 in serum (mouse cytokines in serum; day 12 post MOG induced EAE, control 83 ± 29): 2 ± 0.2 pg/mL; TNF-α in serum (mouse cytokines in serum; day 12 post MOG induced EAE, control 219 ± 132): 61 ± 46 pg/mL; IL-12 in serum (mouse cytokines in serum; day 12 post MOG induced EAE, control 559 ± 276): 36 ± 14 pg/mL; reduction for IL-12 (mouse cytokines in serum; [5]): 15 fold; reduction for Il-10 (mouse cytokines in serum; [5]): 5.0 fold; reduction for TNF levels (mouse cytokines in serum; [5]): 3.5 fold; reduction in IL-17 (mouse cytokines in serum; [5]): approximately 35 fold; Max. Score [3, 6]: 3; Max. Score (mean +/− SEM) [3, 6]: 0.45 +/− 0.31; percentage of animals that exhibited any clinical symptom of the disease ([3]; control 78%): 27%; mean clinical score ([3]; day 12, plateau of the clinical condition, control 1.9): 0.45; onset of the disease ([3]; in the minority of animals in which it occurred, control 4.4 days): 7.3 days; Day of Disease Onset ([3]; treated from day -2 before MOG booster): 7.33 +/− 1.73; effect on EAE clinical symptoms (in words) [3]: reduced the severity and delayed the onset of the clinical manifestation of the disease; secretion of IFNγ (activated T-cells; 24 hours treatment): does not reduce the levels of these cytokines to background; also recorded: reduced to less than half the level secreted by the untreated activated T-cells; secretion of IL-17 (activated T-cells; 24 hours treatment): does not reduce the levels of these cytokines to background; secretion of IFNγ (activated T-cells; [7]): down to baseline levels; secretion of IL-17 (activated T-cells; [7]): down to baseline levels; reduction in average clinical score [4]: more than 50%; decrease in the EAE clinical score (EAE mice): two

For `NC(=O)NO` [hydroxyurea, reference compound], which “effect on EAE clinical symptoms (in words)” value [3] is on record?
The value was “did not show evidence of treating neurodegenerative diseases”.
